The values below come from US11407725B2 (The Board of Trustees of the University of Illinois, priority 2018, dated 2022).

One assay deals with T1, ALDH1A3 (Homo sapiens, UniProt P47895).
T1 construct: made in house
T1 sequence (P47895 1-512): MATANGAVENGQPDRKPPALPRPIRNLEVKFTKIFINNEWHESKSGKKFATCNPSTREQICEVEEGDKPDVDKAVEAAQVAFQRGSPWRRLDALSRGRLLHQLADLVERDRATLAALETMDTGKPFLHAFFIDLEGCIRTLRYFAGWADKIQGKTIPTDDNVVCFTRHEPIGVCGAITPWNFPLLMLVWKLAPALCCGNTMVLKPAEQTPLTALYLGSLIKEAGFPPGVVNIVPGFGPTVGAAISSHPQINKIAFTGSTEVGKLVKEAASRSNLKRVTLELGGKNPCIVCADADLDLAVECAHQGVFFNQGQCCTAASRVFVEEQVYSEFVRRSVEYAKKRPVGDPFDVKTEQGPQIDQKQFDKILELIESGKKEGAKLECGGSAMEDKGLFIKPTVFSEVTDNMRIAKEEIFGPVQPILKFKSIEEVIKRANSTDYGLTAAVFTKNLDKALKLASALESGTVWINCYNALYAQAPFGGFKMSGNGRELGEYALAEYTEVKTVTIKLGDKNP
In words: ALDH isoform selectivity of red probes: ALDH1A3. The assay is classed as biochemical. On the procedure:
(§1) Each ALDH isoform was added to a 50 mM triethanolamine solution (pH 7.4) containing 2.0 mM NAD^+ and 100 μM substrate at room temperature. Benzaldehyde was the substrate for ALDH3A1. Propanal was the substrate for all other isoforms. ALDH isoform activity was determined by monitoring the rate of NADH production through the increase in absorbance at 340 nm (ε=6220 M^−1cm^−1). For these assays, 1 unit is defined as the amount of enzyme that catalyzes the conversion of […] per minute. For every combination of dye and enzyme, 2 μM dye was preincubated with 2.0 mM NAD^+ in 50 mM triethanolamine solution (pH 7.4). The reaction was initiated by addition of 1 unit of ALDH. Dyes were excited at 590 nm, and fluorescence was measured continuously at 610 nm.

The test system of assay [1] is ALDH1A2, ALDH2, ALDH3A1, ALDH4A1, and ALDH5A1. In words: ALDH isoform selectivity of red-AlDeSense: other isoforms. Type of assay: biochemical, human. The note with it: 2 μM dye. On the procedure:
as §1

Another assay concerns K562 cells. In words: Flow cytometry of K562 cells stained with AlDeSense. The assay is classed as cell-based, human. On the procedure: K562 cells were resuspended in PBS to a final concentration of 100,000 cells/mL. The suspension was divided into 0.5 mL aliquots and the cells were collected by centrifugation at 1000 rpm for 5 min at 4° C. Each sample was then resuspended in premixed AlDeSense AM or Ctrl-AlDeSense AM solutions (1.5 μM, PBS). For each dye, triplicate samples were prepared. Cells were incubated with dye for 30 minutes at room temperature with rocking to prevent cell clumping and ensure even dye distribution. At the end of the incubation period, cells were again collected by centrifugation at 1000 rpm for 5 min at 4° C. The dye solution was removed by aspiration, and each sample of cells were resuspended in 0.5 mL of PBS. The samples were immediately placed on ice until analysis. The samples were analyzed by a BD LSR II Flow Cytometry Analyzer using a 488 nm laser and a FITC filter. Data analyzed on FCS Express 6.04.
The day before imaging, Nunc™ Lab-Tek™ Chamber Slide™ systems (Thermo Fisher) were coated with poly-L-lysine (Trevigen) according to manufacturer's instructions. Cells were added to the chamber slides at a concentration of 400,000 cells/mL, yielding 90% confluent cells after 24 h. […] Images were analyzed using ImageJ software (Version 1.5 in).

In a further assay the test system is MDA-MB-231 mammospheres. The assay is described as follows: Mammosphere culture and imaging. Type of assay: cell-based. The settings on record: 2 μM dye. On the procedure: Mammosphere formation from MDA-MB-231 breast cancer cells was performed as described previously with some modifications. Cells were resuspended and diluted to a density of 2000 cells/mL in DMEM/F12 (Sigma-Aldrich) supplemented with 2% B27 supplement (Thermo Fisher), 40 ng/mL rhFGF-2 (Miltenyi Biotec), and 20 ng/mL rhEGF (Gibco®). They were plated in ultra-low attachment 6-well plates (Corning) and incubated at 37° C. and 5% CO2 for 5 days or until most mammospheres were between […]. At this point, the mammospheres were transferred to a 4-well chamber slide coated with Poly-L-lysine as described previously. The mammospheres were then either immediately imaged with AlDeSense or Ctrl-AlDeSense, or the media was exchanged with full DMEM media supplement with 10% FBS and non-essential amino acids to allow differentiation over 36 hours.
At various time points, the mammospheres were stained with 2 μM AlDeSense or Ctrl-AlDeSense as described above. Staining continued for 1 h at room temperature before imaging with a wide field fluorescence microscope (Zeiss Axiovert 200M). A GFP filter set was used to excite the fluorophores. Exposure times were set equally for all images taken within a data set and configured to give low signal in Ctrl-AlDeSense stained tumorspheres. Only mammospheres greater than 50 μm in diameter were considered in the analysis.

Assay [2] concerns e-CSC and non-CSC melanoma lung metastases. The assay is described as follows: Ex vivo lung metastases imaging. Type of assay: in vivo, mice. The note with it: lungs perfused ex vivo, day 7 and 11. On the procedure:
Six to eight-week-old female C57BL/6J mice were purchased from Jackson Laboratory. Experimental metastases were established by injecting 2×10^5 melanoma cells via lateral tail vein injection. Mice were euthanized at either 7- or 11-days post injection. Immediately after euthanization, their lungs were excised and perfused with about 1 mL of either 15 μM AlDeSense AM or 15 μM Ctrl-AlDeSense AM in PBS. Outer portions of the lungs were rinsed in 15 mL of PBS to remove blood or excess dyes. After 2 hours incubation at room temperature (25° C.), the lungs were imaged on the IVIS spectrum imaging system (Perkin Elmer). Data was processed using Living Image software (Version 4.1).

Assay [3] deals with e-CSC and non-CSC B16F0 tumors. The assay is described as follows: In vivo melanoma tumor fluorescence imaging. Details: species or system mice. The settings on record: 1 and 2 weeks.

With `Cc1cc(C=O)c(F)c(F)c1C1=C2C=CC(=O)C=C2[Si](C)(C)c2cc(O)ccc21`, the “selectivity ALDH1A1 versus ALDH1A3” value at ALDH1A3 is listed as “selective for ALDH1A1 over ALDH1A3”. In addition, on ALDH1A3 (Table 2), the “Enzyme Activity 1A3” value was “Low”. Further, in assay [1], the “cross-reactivity with ALDH1A2, ALDH2, ALDH3A1, ALDH4A1, ALDH5A1” value is “no cross-reactivity”.

For `Cc1cc(C=O)ccc1-c1c2cc(F)c(=O)cc-2oc2cc(O)c(F)cc12` [AlDeSense], in the assay with K562 cells, the “brightness of stained K562 cells versus AlDeSense with inhibitor or Ctrl-AlDeSense” value is “significantly brighter”. In addition, the “brightness of mammospheres versus Ctrl-AlDeSense” value with MDA-MB-231 mammospheres stood at 3 fold. The “fluorescence of e-CSC lungs versus non-CSC lungs” value in assay [2] is “higher”. Further, the “signal in e-CSC versus non-CSC tumors” value in assay [3] is on record as “consistently higher signal”.
